Assays:
39 kinases (Table 4) = test: Global specificity profiling experiment, single point inhibition on kinase microarray; type: biochemical; settings: substrates histone, casein, MBP, polyEY, control 2% DMSO
Description: (§1) The wash solution is then discarded.
To assess the application of microarray assays for compound profiling, seven known inhibitors (see Table of inhibitors used in global specificity profiling experiment) and one control (2% DMSO) were tested on microarrays deposited with a group of kinases (as well as positive and negative controls). The method of Example I was used. Twelve spots of each kinase or control were deposited on each array, and three arrays were used for each inhibitor. A mixture of generic kinase substrates (histone, casein, MBP, and polyEY) was used in the assay. The average of all signals from the same inhibitor or control experiment was calculated.
. The general specificities observed were consistent with the known general specificities for these inhibitors, which are listed in Table 3.

EPHB3 = EPHB3 (Homo sapiens, UniProt P54753); test: Dose-response analysis on 10-well kinase microarray; type: biochemical; settings: different inhibitor concentration in each well; substrate MBP, histone and casein
Description: as §1
Microarrays were prepared with 10 wells/slide, wherein the kinases EPHB3, FYN, and PRKCD and their substrate were immobilized in each well. The slide was coated with substrate essentially as described in Example I. Subsequently, a gasket with 10 openings was applied to the surface of the slide thereby creating 10 wells, i.e., the gasket provides the barriers between the wells. The accession numbers for the different kinases in the NCBI database are: for FYN: NM_002037; for PRKCD: NM_006254; and for EPHB3: NM_004443.

tyrosine kinases = test: Inhibitor specificity profiling on kinase microarray (fifty kinases, gamma-AT33P); settings: inhibitor 100 μm; substrate mixture of MBP, histone and casein
Description: To coat slides with kinase substrate, the substrates are diluted to 10 ng/μL in 1×PBS and 180-200 μL of substrate solution are pipetted onto one slide, e.g., a glass slide, aldehyde treated slides (TeleChem International, Inc.), nitrocellulose-coated slides (Schleicher & Schuell), slides with an amino-silane surface (Corning). A second slide is then placed on top of the first slide so that the sides to be deposited with kinases face each other. Care should be taken that the liquid covers the entire slide and that there are no air bubbles. The slides are placed in a 50 mL conical tube, making sure they are laying flat and incubated at 4° C. for one hour to several days.
Subsequently, approximately 100 mL of PBST are added to the dish. The slides are then washed for one hour at 4° C. with shaking. The PBST is then discarded and the slides are gently rinsed with dH2O using a squirt bottle. After rinsing, the slides are placed into a slide boxes and centrifuged at 4000 rpm for one minute. The slides are then stored at 4° C. until printing with kinase.
1 mL of kinase assay buffer for every 12 glass slides to be probed is prepared. 6 μL of gamma-AT^33P (10 μCi/μL) are added to the assay buffer. The slides are placed in 50 mL conical tubes, laying flat, proteins facing up. 70 μL to 150 μL of the kinase assay buffer with gamma-AT^33P are added onto each slide. […]

PRKCD = PRKCD (Homo sapiens, UniProt Q05655); test: Dose-response analysis on 10-well kinase microarray; type: biochemical; settings: different inhibitor concentration in each well; substrate MBP, histone and casein
Description: as §1
(§2) Microarrays were prepared with 10 wells/slide, wherein the kinases EPHB3, FYN, and PRKCD and their substrate were immobilized in each well.

FYN [1] = target: T1, FYN (Homo sapiens, UniProt P06241); test: Global specificity profiling experiment, single point inhibition on kinase microarray; type: biochemical; settings: substrates histone, casein, MBP, polyEY
Description: as §1
A mixture of generic kinase substrates (histone, casein, MBP, and polyEY) was used in the assay. The average of all signals from the same inhibitor or control experiment was calculated.
To expedite data analysis regarding the kinase families that are inhibited by a particular […], a graphical representation can be constructed of inhibition data for substrates in such a manner that phylogenetically related kinases can be spatially arranged on the graphical representation.

FYN [2] = target: T1, FYN; test: Dose-response analysis on 10-well kinase microarray; type: biochemical; settings: different inhibitor concentration in each well; substrate MBP, histone and casein
Description: as §1, §2

EPHB3, sequence (P54753 34-998): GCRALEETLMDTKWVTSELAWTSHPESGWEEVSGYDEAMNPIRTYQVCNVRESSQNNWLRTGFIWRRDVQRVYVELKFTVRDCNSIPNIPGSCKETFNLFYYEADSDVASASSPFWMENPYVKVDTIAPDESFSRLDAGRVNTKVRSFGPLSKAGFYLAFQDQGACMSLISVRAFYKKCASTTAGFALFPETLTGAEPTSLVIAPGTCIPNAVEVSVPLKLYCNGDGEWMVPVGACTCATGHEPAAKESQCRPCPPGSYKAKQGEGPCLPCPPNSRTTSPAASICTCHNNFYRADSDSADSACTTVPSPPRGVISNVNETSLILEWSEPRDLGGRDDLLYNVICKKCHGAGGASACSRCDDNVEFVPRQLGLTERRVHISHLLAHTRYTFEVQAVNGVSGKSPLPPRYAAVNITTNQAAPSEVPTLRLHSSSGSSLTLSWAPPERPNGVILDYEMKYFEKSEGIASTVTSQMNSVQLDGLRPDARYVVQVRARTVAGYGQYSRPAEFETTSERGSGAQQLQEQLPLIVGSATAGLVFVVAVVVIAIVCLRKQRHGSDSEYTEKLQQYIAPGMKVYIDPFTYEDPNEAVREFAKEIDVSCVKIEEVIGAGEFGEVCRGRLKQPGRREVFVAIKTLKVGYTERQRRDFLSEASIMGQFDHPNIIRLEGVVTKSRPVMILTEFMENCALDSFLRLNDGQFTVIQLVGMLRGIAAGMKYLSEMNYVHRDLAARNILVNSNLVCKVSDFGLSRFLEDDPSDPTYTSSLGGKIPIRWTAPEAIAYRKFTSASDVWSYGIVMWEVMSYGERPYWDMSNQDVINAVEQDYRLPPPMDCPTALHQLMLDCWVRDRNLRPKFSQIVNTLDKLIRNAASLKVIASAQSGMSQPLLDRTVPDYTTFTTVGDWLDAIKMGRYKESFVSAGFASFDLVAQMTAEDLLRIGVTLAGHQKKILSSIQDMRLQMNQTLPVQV
T1 sequence (P06241 whole entry): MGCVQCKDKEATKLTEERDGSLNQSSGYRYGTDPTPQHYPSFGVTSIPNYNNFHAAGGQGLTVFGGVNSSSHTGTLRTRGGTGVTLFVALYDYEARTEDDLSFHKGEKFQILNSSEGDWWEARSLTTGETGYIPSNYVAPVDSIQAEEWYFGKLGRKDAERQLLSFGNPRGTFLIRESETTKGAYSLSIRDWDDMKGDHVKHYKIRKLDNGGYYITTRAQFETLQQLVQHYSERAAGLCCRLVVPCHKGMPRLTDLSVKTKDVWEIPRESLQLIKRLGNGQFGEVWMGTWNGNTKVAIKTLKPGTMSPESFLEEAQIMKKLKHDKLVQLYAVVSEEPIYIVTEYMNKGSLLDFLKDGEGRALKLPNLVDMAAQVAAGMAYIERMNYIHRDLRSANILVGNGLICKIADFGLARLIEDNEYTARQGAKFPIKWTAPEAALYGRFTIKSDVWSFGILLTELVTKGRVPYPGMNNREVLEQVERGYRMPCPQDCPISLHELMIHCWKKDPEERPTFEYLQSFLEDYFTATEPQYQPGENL
PRKCD, sequence (Q05655 whole entry): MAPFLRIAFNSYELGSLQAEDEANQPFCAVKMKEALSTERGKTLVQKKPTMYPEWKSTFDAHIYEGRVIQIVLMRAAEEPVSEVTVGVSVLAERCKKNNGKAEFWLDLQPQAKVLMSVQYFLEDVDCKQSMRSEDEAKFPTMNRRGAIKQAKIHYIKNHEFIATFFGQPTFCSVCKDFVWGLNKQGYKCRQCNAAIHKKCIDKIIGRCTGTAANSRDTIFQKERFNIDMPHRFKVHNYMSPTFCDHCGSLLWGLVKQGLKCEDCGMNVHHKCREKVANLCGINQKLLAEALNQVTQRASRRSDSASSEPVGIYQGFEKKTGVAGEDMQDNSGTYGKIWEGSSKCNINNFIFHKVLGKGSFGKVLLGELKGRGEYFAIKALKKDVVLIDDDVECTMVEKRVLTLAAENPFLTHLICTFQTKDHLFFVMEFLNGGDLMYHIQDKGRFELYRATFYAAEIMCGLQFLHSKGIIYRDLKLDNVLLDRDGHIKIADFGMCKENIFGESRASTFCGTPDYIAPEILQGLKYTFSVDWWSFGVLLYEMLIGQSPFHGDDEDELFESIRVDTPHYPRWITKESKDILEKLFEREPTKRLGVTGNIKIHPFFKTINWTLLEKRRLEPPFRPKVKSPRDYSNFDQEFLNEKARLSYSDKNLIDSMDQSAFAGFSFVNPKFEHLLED

Compound	specificity observed in global profiling (percentage-of-inhibition data) (39 kinases (Table 4))	inhibition of EPHB3 (dose-response) (EPHB3)	inhibition of tyrosine kinases (tyrosine kinases)	inhibition of PRKCD (dose-response) (PRKCD)	inhibition of FYN in global profiling (FYN [1])	inhibition of FYN (dose-response) (FYN [2])
CC(C)(C)n1nc(-c2ccc(Cl)cc2)c2c(N)ncnc21 [PP2]	primarily inhibited tyrosine kinases	strongly inhibits	strongly inhibited	not	–	–
Cn1cc(C2=C(c3cn(CCCSC(=N)N)c4ccccc34)C(=O)NC2=O)c2ccccc21 [Ro-31-8220]	more specifically targeted the serine-threonine kinases	–	–	–	–	–
CN[C@@H]1C[C@H]2O[C@@](C)([C@@H]1OC)n1c3ccccc3c3c4c(c5c6ccccc6n2c5c31)C(=O)NC4 [Staurosporine]	broad spectrum of kinases inhibited	not	–	–	inhibited	strongly inhibits

Reference: patent US20090099029A1, “Methods and substrates for conducting assays” (Invitrogen Corporation, priority 2005, published 2009)
